Data on 28 compounds can be found in patent US7166617B2, “Cyclic amide derivatives” (Mitsubishi Pharma Corporation, priority 2000, dated 2007).

Structures can show the parent of a compound that is named as a salt.

One test has as its target T1, sigma 2 receptor (Rattus norvegicus, UniProt Q5U3Y7).
T1 construct: A crude P2 membrane fraction was prepared from livers of male rats (Sprague-Dawley rats); from tissue; host or cells: rat liver (male Sprague-Dawley), crude P2 membrane fraction
T1 sequence (Q5U3Y7 1-176): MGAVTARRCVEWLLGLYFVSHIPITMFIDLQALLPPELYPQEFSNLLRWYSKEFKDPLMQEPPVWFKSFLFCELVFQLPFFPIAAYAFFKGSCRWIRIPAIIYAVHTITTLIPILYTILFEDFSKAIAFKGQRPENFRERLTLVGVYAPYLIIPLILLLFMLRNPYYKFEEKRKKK
The experiment in a line: Sigma 2-selective receptor binding inhibition test ([3H]-DTG, rat liver P2 membrane fraction). The settings on record: [3H]-DTG 1 nM, 500 nM pentazocine, P2 fraction of livers of male Sprague-Dawley rats, 25° C., 2 hours. How it is done:
Sigma Binding Site-Binding Inhibition Test
A crude P2 membrane fraction was prepared from livers of male rats (Sprague-Dawley rats) according to a method described in the literature (X. He, et al., J. Med. Chem., 36, pp. 566–571, 1993). In the presence of 500 nM pentazocine and a control compound at various concentrations (haloperidol, 10^−10 to 10^−6 M) or a test ligand at various concentrations (10^−10 to 10^−5 M) together with a radioactive ligand, the P2 fraction (0.4 ml) was incubated in 50 mM Tris-HCl (pH 7.4, final volume: 0.5 ml) at 25° C. for 2 hours. The reaction mixture was rapidly filtered on a Brandel cell harvester using Whatman GF/B filter paper, which was immersed beforehand in 0.5% polyethyleneimine for 1 hour, to stop the reaction. The filter paper was washed 4 times with the ice cooled incubation buffer. The non-specific results were evaluated by using 1 μM haloperidol, and the scintillation analysis and the curve analysis were performed as described above.
In turn, `O=C(CN1CCC(CN2Cc3c(Br)cccc3C2=O)CC1)c1ccc(F)cc1` [Example 2, 4-Bromo-2-[[1-[2-(4-fluorophenyl)-2-oxoethyl]piperidin-4-yl]methyl]isoindolin-1-one hydrochloride] yielded an inhibition constant Ki of 0.0028 µM.
Still for that read-out and setting: under `O=C(CN1CCC(CN2Cc3cc(Br)ccc3C2=O)CC1)c1ccc(F)cc1` [Example 3, 5-Bromo-2-[[1-[2-(4-fluorophenyl)-2-oxoethyl]piperidin-4-yl]methyl]isoindolin-1-one hydrochloride] stands 0.007 µM.
Same read-out and setting: under `O=C(CN1CCC(CN2Cc3cc(F)ccc3C2=O)CC1)c1ccc(F)cc1` [Example 154, 5-Fluoro-2-[[1-[2-(4-fluorophenyl)-2-oxoethyl]piperidin-4-yl]methyl]isoindolin-1-one hydrochloride] stands 0.016 µM.
Still for that read-out and setting: under `COc1ccc2c(c1)CN(CC1CCN(CC(=O)c3ccc(F)cc3)CC1)C2=O` [Example 9, 5-Methyloxy-2-[[1-[2-(4-fluorophenyl)-2-oxoethyl]piperidin-4-yl]methyl]isoindolin-1-one hydrochloride] stands 0.0049 µM; under `COc1ccc2c(c1)CN(CC1CCN(CCc3ccc(F)cc3)CC1)C2=O` [Example 159, 5-Methoxy-2-[1-[2-(4-fluorophenyl)ethyl]piperidin-4-ylmethyl]isoindolin-1-one fumarate], 0.025 µM; under `O=C(CN1CCC(CN2Cc3ccccc3C2=O)CC1)c1ccc(F)cc1` [Example 1, 2-[[1-[2-(4-Fluorophenyl)-2-oxoethyl]piperidin-4-yl]methyl]isoindolin-1-one hydrochloride], 0.013 µM.
Take `O=C1c2ccc(Br)cc2CN1CC1CCN(CCc2ccc(F)cc2)CC1` [Example 160, 5-Bromo-2-[1-[2-(4-fluorophenyl)ethyl]piperidin-4-ylmethyl]isoindolin-1-one fumarate]: the Ki stood at 0.01 µM.
As to `O=C1c2ccc(Br)cc2CN1CC1CCN(CC(O)c2ccc(F)cc2)CC1` (racemic) [Example 17, (R,S)-5-Bromo-2-[[1-[2-(4-fluorophenyl)-2-hydroxyethyl]piperidin-4-yl]methyl]isoindolin-1-one hydrochloride], the inhibition constant Ki came to 0.024 µM.
Still for that read-out and setting: the same measure for `O=C(CN1CCC(CN2Cc3c(F)cccc3C2=O)CC1)c1ccc(F)cc1` [Example 6, 4-Fluoro-2-[[1-[2-(4-fluorophenyl)-2-oxoethyl]piperidin-4-yl]methyl]isoindolin-1-one hydrochloride]: 0.0087 µM; for `O=C(CN1CCC(CN2Cc3ccc(Br)cc3C2=O)CC1)c1ccc(F)cc1` [Example 4, 6-Bromo-2-[[1-[2-(4-fluorophenyl)-2-oxoethyl]piperidin-4-yl]methyl]isoindolin-1-one hydrochloride]: 0.0076 µM; for `O=C1c2ccccc2CN1CC1CCN(CCOc2ccc(F)cc2)CC1` [Example 32, 2-[[1-[2-(4-Fluorophenyloxy)ethyl]piperidin-4-yl]methyl]isoindolin-1-one hydrochloride]: 0.0028 µM.
With `O=C(CN1CCC(CN2Cc3ccc(F)cc3C2=O)CC1)c1ccc(F)cc1` [Example 7, 6-Fluoro-2-[[1-[2-(4-fluorophenyl)-2-oxoethyl]piperidin-4-yl]methyl]isoindolin-1-one hydrochloride], the Ki is 0.016 µM.
Still for that read-out and setting: under `COc1ccccc1CCN1CCC(CN2Cc3ccccc3C2=O)CC1` [Example 26, 2-[[1-[2-(2-Methoxyphenyl)ethyl]piperidin-4-yl]methyl]isoindolin-1-one hydrochloride] stands 0.01 µM; under `O=C(CN1CCC(CN2Cc3ccsc3C2=O)CC1)c1ccc(F)cc1` [Example 22, 5-[[1-[2-(4-Fluorophenyl)-2-oxoethyl]piperidin-4-yl]methyl]-4,5-dihydro-6H-thieno[2,3-c]pyrrol-6-one hydrochloride], 0.022 µM.

Staying with this test, now noted: test compound 10 nM; [3H]-DTG 1 nM, 500 nM pentazocine, rat liver P2 fraction.
Take `Cl.O=C(CN1CCC(CN2Cc3ccccc3C2=O)CC1)c1cccn1-c1ccccc1` [Example 95, 2-[[1-[2-[2-(1-Phenyl)pyrrolyl]-2-oxoethyl]piperidin-4-yl]methyl]-isoindolin-1-one hydrochloride]: the “Inhibitory rate against sigma 2 (%, 10 nM)” value was 69%.
The same measure, in the same setting: the same measure for `CCCCn1cccc1C(=O)CN1CCC(CN2Cc3ccccc3C2=O)CC1.Cl` [Example 94, 2-[[1-[2-[2-(1-Butyl)pyrrolyl]-2-oxoethyl]piperidin-4-yl]methyl]isoindolin-1-one hydrochloride]: 83%.

The test is the same for the next values; noted with them: test compound 10 nM; [3H]-DTG 1 nM, 500 nM pentazocine, rat liver P2 fraction; read-out: Inhibitory rate against sigma 2 (%, 10 nM).
For the compound `O=C(CN1CCC(CN2Cc3ccccc3C2=O)CC1)c1cccc(Cl)c1` [Example 76, 2-[[1-[2-(3-Chlorophenyl)-2-oxoethyl]piperidin-4-yl]methyl]isoindolin-1-one fumarate], the inhibition at 0.01 µM stood at 84%.
On the same count and under the same terms, the same measure for `O=C1c2ccccc2CN1CC1CCN(CCOc2cccc(F)c2)CC1` [Example 118, 2-[[1-[2-(3-Fluorophenoxy)ethyl]piperidin-4-yl]methyl]isoindolin-1-one fumarate]: 50%.
Turning to `O=C1c2ccccc2CN1CC1CCN(CC(O)C2CCCCC2)CC1` (stereo not shown) [Example 85, 2-[[1-(2-Cyclohexyl-2-hydroxyethyl)piperidin-4-yl]methyl]isoindolin-1-one fumarate], the inhibition at 0.01 µM is 59%.
The same measure, in the same setting: the same measure for `O=C1c2ccccc2CN1CC1CCN(CCN2CCc3ccccc32)CC1` [Example 53, 2-[[1-[2-(Indolin-1-yl)ethyl]piperidin-4-yl]methyl]isoindolin-1-one fumarate]: 57%.
Same read-out and setting: under `O=C1c2ccccc2CN1CC1CCN(CCOc2ccccc2)CC1` [Example 114, 2-[[1-(2-Phenoxyethyl)piperidin-4-yl]methyl]isoindolin-1-one fumarate] stands 51%; under `O=C1c2ccccc2CN1CC1CCN(CCOc2ccccc2F)CC1` [Example 117, 2-[[1-[2-(2-Fluorophenoxy)ethyl]piperidin-4-yl]methyl]isoindolin-1-one fumarate], 52%.
On the same count and under the same terms, under `O=C1c2ccccc2CN1CC1CCN(CC(=O)N2CCc3ccccc32)CC1` [Example 51, 2-[[1-[2-(Indolin-1-yl)-2-oxoethyl]piperidin-4-yl]methyl]isoindolin-1-one fumarate] stands 74%; under `O=C1c2ccccc2CN1CC1CCN(CCSc2ccccc2)CC1` [Example 109, 2-[[1-[2-(Phenylthio)ethyl]piperidin-4-yl]methyl]isoindolin-1-one fumarate], 68%; under `O=C1c2ccccc2CN1CC1CCN(CCc2cccc3ccccc23)CC1` [Example 97, 2-[[1-[2-(1-Naphthyl)ethyl]piperidin-4-yl]methyl]isoindolin-1-one fumarate], 59%.
Turning to `O=C1c2cccc(F)c2CN1CC1CCN(CCOc2ccc(F)cc2)CC1` [Example 181, 4-Fluoro-2-[1-[2-(4-fluorophenoxy)ethyl]piperidin-4-ylmethyl]isoindolin-1-one fumarate], the inhibition at 0.01 µM was 70%.
Still for that read-out and setting: under `O=C1c2ccc(Cl)cc2CN1CC1CCN(CCOc2ccc(F)cc2)CC1` [Example 178, 5-Chloro-2-[1-[2-(4-fluorophenoxy)ethyl]piperidin-4-ylmethyl]isoindolin-1-one fumarate] stands 50%; under `Cc1ccccc1C(=O)CN1CCC(CN2Cc3ccccc3C2=O)CC1` [Example 77, 2-[[1-[2-(2-Tolyl)-2-oxoethyl]piperidin-4-yl]methyl]isoindolin-1-one fumarate], 80%.

As usually defined, the Ki is the equilibrium dissociation constant of an inhibitor or competing ligand from its target. High values mean weaker binding, low ones tighter binding.
